Measurements: ChEMBL document CHEMBL1148090, “Antibacterial and antifungal sulfated alkane and alkenes from the hepatopancreas of the ascidian Halocynthia roretzi” (1994)

Tests used:
Vibrio alginolyticus = assay: Antimicrobial activity against Vibrio alginolyticus ATCC 17749 at 0.2 ug/disk after 24 hrs by paper disk method; assay type: functional; conditions: ATCC 17749, 24 h, read-out: IZ
Umbelopsis ramanniana = assay: Antimicrobial activity against Mortierella ramanniana at 0.2 ug/disk after 24 hrs by paper disk method; assay type: functional; conditions: read-out: IZ

Structure (SMILES)	zone of inhibition at 0.2 µg/disc (Vibrio alginolyticus)	zone of inhibition at 0.2 µg/disc (Umbelopsis ramanniana)
CC/C=C\C/C=C\CCCOS(=O)(=O)O	12 mm	10 mm
CC(C)CCCC(C)COS(=O)(=O)O (stereo not drawn)	12 mm	10 mm
CC/C=C/C/C=C\CCCOS(=O)(=O)O	12 mm	10 mm
C=CC/C=C\C/C=C\CCOS(=O)(=O)O	12 mm	10 mm
